Measured values as given in PubChem BioAssay AID288 (DTP/NCI, 2004).
Where “and” joins values, the source holds several entries; their conditions need not be identical. Equal entries are not always repeated. Inconclusive results are not listed.

System: BDF1 mice, M5076 sarcoma s.c., survival/tumor T/C
Test: NCI In Vivo Anticancer Drug Screen. Data for tumor model Sarcoma M5076 (subcutaneous) in B6D2F1 (BDF1) mice
Procedure: The antitumor activity of compounds was measured in mice bearing transplantable tumors. Survival or tumor size were measured and the results are expressed as the measurement made in the treated group (T) divided by the measurement made in the vehicle treated control group (C). The tumor model used in this assay is Sarcoma M5076 (subcutaneous) in B6D2F1 (BDF1) mice

[1] = endpoint: mean tumor weight, dose: 150.0 mg/kg/injection, schedule: Q02DX011 (ip), vehicle: saline, higher = larger tumour
[2] = endpoint: mean tumor weight, dose: 300.0 mg/kg/injection, schedule: Q02DX011 (ip), vehicle: saline, higher = larger tumour
[3] = endpoint: median tumor weight (est.), dose: 75.0 mg/kg/injection, schedule: Q02DX011 (ip), vehicle: saline, higher = larger tumour
[4] = endpoint: median tumor weight (est.), dose: 150.0 mg/kg/injection, schedule: Q02DX011 (ip), vehicle: saline, higher = larger tumour
[5] = endpoint: median tumor weight (est.), dose: 300.0 mg/kg/injection, schedule: Q02DX011 (ip), vehicle: saline, higher = larger tumour
[6] = endpoint: median survival time, dose: 50.0 mg/kg/injection, schedule: Q01DX009 (ip), vehicle: saline with Tween-80, higher = longer survival
[7] = endpoint: median survival time, dose: 100.0 mg/kg/injection, schedule: Q01DX009 (ip), vehicle: saline with Tween-80, higher = longer survival
[8] = endpoint: median survival time, dose: 200.0 mg/kg/injection, schedule: Q01DX009 (ip), vehicle: saline with Tween-80, higher = longer survival
[9] = endpoint: median tumor weight (est.), dose: 50.0 mg/kg/injection, schedule: Q01DX009 (ip), vehicle: saline with Tween-80, higher = larger tumour
[10] = endpoint: median tumor weight (est.), dose: 100.0 mg/kg/injection, schedule: Q01DX009 (ip), vehicle: saline with Tween-80, higher = larger tumour
[11] = endpoint: median tumor weight (est.), dose: 200.0 mg/kg/injection, schedule: Q01DX009 (ip), vehicle: saline with Tween-80, higher = larger tumour

CC1(C)N=C(N)N=C(N)N1c1ccc(CCCCc2ccc(S(=O)(=O)F)cc2Cl)c(Cl)c1
T/C (endpoint: median survival time, dose: 1.8 mg/kg/injection, schedule: Q01DX005 (iv), vehicle: other, higher = longer survival): 97 % of control
T/C (endpoint: median survival time, dose: 3.7 mg/kg/injection, schedule: Q01DX001 (iv), vehicle: other, higher = longer survival): 107 % of control
T/C (endpoint: median survival time, dose: 3.7 mg/kg/injection, schedule: Q01DX005 (iv), vehicle: other, higher = longer survival): 97 % of control
T/C (endpoint: median survival time, dose: 5.18 mg/kg/injection, schedule: Q01DX009 (ip), vehicle: other, higher = longer survival): 162 % of control
T/C (endpoint: median survival time, dose: 5.4 mg/kg/injection, schedule: Q01DX009 (ip), vehicle: other, higher = longer survival): 151 % of control
T/C (endpoint: median survival time, dose: 7.5 mg/kg/injection, schedule: Q01DX001 (iv), vehicle: other, higher = longer survival): 91 % of control
T/C (endpoint: median survival time, dose: 7.5 mg/kg/injection, schedule: Q01DX005 (iv), vehicle: other, higher = longer survival): 114 % of control
T/C (endpoint: median survival time, dose: 8.0 mg/kg/injection, schedule: Q01DX009 (ip), vehicle: other, higher = longer survival): 151 % of control
T/C (endpoint: median survival time, dose: 8.64 mg/kg/injection, schedule: Q01DX009 (ip), vehicle: other, higher = longer survival): 176 % of control
T/C (endpoint: median survival time, dose: 10.0 mg/kg/injection, schedule: Q01DX009 (ip), vehicle: saline with Tween-80, higher = longer survival): 150 % of control
T/C (endpoint: median survival time, dose: 14.4 mg/kg/injection, schedule: Q01DX009 (ip), vehicle: other, higher = longer survival): 190 % of control
T/C (endpoint: median survival time, dose: 15.0 mg/kg/injection, schedule: Q01DX001 (ip), vehicle: other, higher = longer survival): 110 % of control
T/C (endpoint: median survival time, dose: 15.0 mg/kg/injection, schedule: Q01DX005 (ip), vehicle: other, higher = longer survival): 124 % of control
T/C (endpoint: median survival time, dose: 15.0 mg/kg/injection, schedule: Q01DX009 (oral), vehicle: other, higher = longer survival): 89 % of control
T/C (endpoint: median survival time, dose: 20.0 mg/kg/injection, schedule: Q01DX009 (ip), vehicle: other, higher = longer survival): 155 % of control
T/C (endpoint: median survival time, dose: 20.0 mg/kg/injection, schedule: Q01DX009 (ip), vehicle: saline with Tween-80, higher = longer survival): 177 % of control
T/C (endpoint: median survival time, dose: 27.0 mg/kg/injection, schedule: Q01DX009 (ip), vehicle: saline with Tween-80, higher = longer survival): 168 % of control
T/C (endpoint: median survival time, dose: 30.0 mg/kg/injection, schedule: Q01DX001 (ip), vehicle: other, higher = longer survival): 103 % of control
T/C (endpoint: median survival time, dose: 30.0 mg/kg/injection, schedule: Q01DX001 (oral), vehicle: other, higher = longer survival): 110 % of control
T/C (endpoint: median survival time, dose: 30.0 mg/kg/injection, schedule: Q01DX005 (oral), vehicle: other, higher = longer survival): 97 % of control
T/C (endpoint: median survival time, dose: 30.0 mg/kg/injection, schedule: Q01DX009 (ip), vehicle: other, higher = longer survival): 169 % of control
T/C (endpoint: median survival time, dose: 30.0 mg/kg/injection, schedule: Q01DX009 (oral), vehicle: other, higher = longer survival): 120 % of control
T/C (endpoint: median survival time, dose: 40.0 mg/kg/injection, schedule: Q01DX009 (ip), vehicle: saline with Tween-80, higher = longer survival): 163 % of control and 217 % of control and 232 % of control
T/C (endpoint: median survival time, dose: 60.0 mg/kg/injection, schedule: Q01DX001 (ip), vehicle: other, higher = longer survival): 111 % of control
T/C (endpoint: median survival time, dose: 60.0 mg/kg/injection, schedule: Q01DX001 (oral), vehicle: other, higher = longer survival): 97 % of control
T/C (endpoint: median survival time, dose: 60.0 mg/kg/injection, schedule: Q01DX005 (oral), vehicle: other, higher = longer survival): 117 % of control
T/C (endpoint: median survival time, dose: 60.0 mg/kg/injection, schedule: Q01DX009 (ip), vehicle: saline with Tween-80, higher = longer survival): 204 % of control and 239 % of control
T/C (endpoint: median survival time, dose: 60.0 mg/kg/injection, schedule: Q01DX009 (oral), vehicle: other, higher = longer survival): 114 % of control
T/C (endpoint: median survival time, dose: 62.0 mg/kg/injection, schedule: Q01DX009 (ip), vehicle: saline with Tween-80, higher = longer survival): 255 % of control
T/C (endpoint: median survival time, dose: 89.0 mg/kg/injection, schedule: Q01DX009 (ip), vehicle: saline with Tween-80, higher = longer survival): 224 % of control
T/C (endpoint: median survival time, dose: 120.0 mg/kg/injection, schedule: Q01DX001 (oral), vehicle: other, higher = longer survival): 97 % of control
T/C (endpoint: median survival time, dose: 120.0 mg/kg/injection, schedule: Q01DX005 (oral), vehicle: other, higher = longer survival): 116 % of control
T/C (endpoint: median survival time, dose: 120.0 mg/kg/injection, schedule: Q01DX009 (oral), vehicle: other, higher = longer survival): 104 % of control
T/C (endpoint: median survival time, dose: 240.0 mg/kg/injection, schedule: Q01DX001 (ip), vehicle: other, higher = longer survival): 123 % of control
T/C (endpoint: median survival time, dose: 240.0 mg/kg/injection, schedule: Q01DX001 (oral), vehicle: other, higher = longer survival): 109 % of control
T/C (endpoint: median survival time, dose: 240.0 mg/kg/injection, schedule: Q01DX005 (oral), vehicle: other, higher = longer survival): 117 % of control
T/C (endpoint: median survival time, dose: 240.0 mg/kg/injection, schedule: Q01DX009 (oral), vehicle: other, higher = longer survival): 110 % of control
T/C (endpoint: median survival time, dose: 480.0 mg/kg/injection, schedule: Q01DX001 (oral), vehicle: other, higher = longer survival): 100 % of control
T/C (endpoint: median survival time, dose: 480.0 mg/kg/injection, schedule: Q01DX005 (oral), vehicle: other, higher = longer survival): 109 % of control
T/C (endpoint: median survival time, dose: 480.0 mg/kg/injection, schedule: Q01DX009 (oral), vehicle: other, higher = longer survival): 124 % of control

CN(C)/N=N/c1nc[nH]c1C(N)=O
T/C (endpoint: median survival time, dose: 13.5 mg/kg/injection, schedule: Q04DX006 (ip), vehicle: saline with Tween-80, higher = longer survival): 96 % of control
T/C (endpoint: median survival time, dose: 27.0 mg/kg/injection, schedule: Q02DX030 (ip), vehicle: saline with Tween-80, higher = longer survival): 177 % of control
T/C (endpoint: median survival time, dose: 27.0 mg/kg/injection, schedule: Q04DX006 (ip), vehicle: saline with Tween-80, higher = longer survival): 122 % of control
T/C (endpoint: median survival time, dose: 54.0 mg/kg/injection, schedule: Q02DX030 (ip), vehicle: saline with Tween-80, higher = longer survival): 191 % of control

Nc1ccn(C2OC3COC2C3O)c(=O)n1 (centres undefined)
T/C (endpoint: median survival time, dose: 50.0 mg/kg/injection, schedule: Q01DX009 (ip), vehicle: saline, higher = longer survival): 89 % of control
T/C (endpoint: median survival time, dose: 100.0 mg/kg/injection, schedule: Q01DX009 (ip), vehicle: saline, higher = longer survival): 110 % of control
T/C (endpoint: median survival time, dose: 200.0 mg/kg/injection, schedule: Q01DX009 (ip), vehicle: saline, higher = longer survival): 102 % of control
T/C (endpoint: median tumor weight (est.), dose: 100.0 mg/kg/injection, schedule: Q01DX009 (ip), vehicle: saline, higher = larger tumour): 65 % of control
T/C (endpoint: median tumor weight (est.), dose: 200.0 mg/kg/injection, schedule: Q01DX009 (ip), vehicle: saline, higher = larger tumour): 92 % of control

O=C1C=CN(C2OC(CO)C(O)C2O)C(=O)C1 (centres undefined)
T/C [1]: 42 % of control and 46 % of control
T/C [2]: 44 % of control and 51 % of control
T/C [3]: 78 % of control and 82 % of control
T/C [4]: 43 % of control and 48 % of control
T/C [5]: 38 % of control and 46 % of control

O=C(O)c1c(CS(F)(F)(F)(F)F)cc(=O)oc1CS(F)(F)(F)(F)F
T/C [6]: 98 % of control

Cc1c(N)nc([C@H](CC(N)=O)NC[C@H](N)C(N)=O)nc1C(=O)N[C@H](C(=O)N[C@H](C)[C@@H](O)[C@H](C)C(=O)N[C@H](C(=O)NCCc1nc(-c2nc(C(=O)NCCC[S+](C)C)cs2)cs1)[C@@H](C)O)C(OC1OC(CO)C(O)C(O)C1OC1OC(CO)C(O)C(OC(N)=O)C1O)c1cnc[nH]1 (some centres undefined)
T/C (endpoint: median survival time, dose: 1.6 mg/kg/injection, schedule: Q04DX009 (ip), vehicle: saline, higher = longer survival): 108 % of control
T/C (endpoint: median survival time, dose: 3.2 mg/kg/injection, schedule: Q04DX009 (ip), vehicle: saline, higher = longer survival): 115 % of control

CCC(NN)C(=O)OCc1ccccc1 (centres undefined)
T/C [6]: 107 % of control
T/C [7]: 104 % of control
T/C [8]: 104 % of control
T/C [9]: 75 % of control
T/C [10]: 103 % of control
T/C [11]: 109 % of control

Cc1cc(-c2ccc(NC(=O)c3cccc([N+](=O)[O-])c3)c(C)c2)ccc1NC(=O)c1cccc([N+](=O)[O-])c1
T/C [6]: 107 % of control
T/C [7]: 102 % of control
T/C [8]: 102 % of control
T/C [9]: 90 % of control
T/C [10]: 83 % of control
T/C [11]: 71 % of control

Cc1ccc(SC(F)(F)C(F)C(F)(F)F)cc1 (centres undefined)
T/C [6]: 98 % of control
T/C [7]: 112 % of control
T/C [8]: 100 % of control

O=C[C@@H](CO)O[C@H](C=O)n1cnc2c(=O)[nH]cnc21
T/C (endpoint: mean tumor weight, dose: 75.0 mg/kg/injection, schedule: Q02DX011 (ip), vehicle: saline, higher = larger tumour): 93 % of control
T/C [1]: 105 % of control
T/C [2]: 54 % of control
T/C [3]: 376 % of control
T/C [4]: 385 % of control
T/C [5]: 266 % of control

CC[C@](O)(C(=O)O)c1cc2n(c(=O)c1CO)Cc1cc3ccccc3nc1-2
T/C (endpoint: mean tumor weight, dose: 1.13 mg/kg/injection, schedule: Q02DX011 (ip), vehicle: saline, higher = larger tumour): 95 % of control
T/C (endpoint: mean tumor weight, dose: 2.25 mg/kg/injection, schedule: Q02DX011 (ip), vehicle: saline, higher = larger tumour): 61 % of control
T/C (endpoint: mean tumor weight, dose: 4.5 mg/kg/injection, schedule: Q02DX011 (ip), vehicle: saline, higher = larger tumour): 25 % of control
T/C (endpoint: median tumor weight (est.), dose: 1.13 mg/kg/injection, schedule: Q02DX011 (ip), vehicle: saline, higher = larger tumour): 97 % of control
T/C (endpoint: median tumor weight (est.), dose: 2.25 mg/kg/injection, schedule: Q02DX011 (ip), vehicle: saline, higher = larger tumour): 96 % of control
T/C (endpoint: median tumor weight (est.), dose: 4.5 mg/kg/injection, schedule: Q02DX011 (ip), vehicle: saline, higher = larger tumour): 44 % of control

COc1ccc(Cl)cc1NC(=O)NNC(=O)C(=O)Nc1ccc(F)cc1
T/C [6]: 106 % of control
T/C [7]: 106 % of control
T/C [8]: 113 % of control
T/C [9]: 87 % of control
T/C [11]: 115 % of control
